# Measured values published in ChEMBL document CHEMBL1201862, “PubChem BioAssay data set” (2004).
#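 Cells were grown in 96-well plates and exposed to each compound for 48 hours at five concentrations; endpoints were interpolated linearly between bracketing concentrations, or set to the highest concentration if not reached. The concentration for 50% growth inhibition is given as GI50.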 The source made the active and inactive calls. No stated cut-off is given here; in the data, active = GI50 up to about 1.1 µM and inactive = higher.
# What was measured:
# Assay in all cases: NCI-60 cell line screen, 48 h
# [1] = test system: KM12
# [2] = test system: TK-10
# [3] = test system: HCT-15
# [4] = test system: SK-OV-3
# [5] = test system: HT-29
# [6] = test system: NCI-H522
# [7] = test system: SF-268
# [8] = test system: MOLT-4
# [9] = test system: OVCAR-8
# [10] = test system: RPMI-8226
# [11] = test system: MDA-N
# [12] = test system: EKVX
# [13] = test system: OVCAR-4
# [14] = test system: PC-3
# [15] = test system: HL-60
# [16] = test system: LOX IMVI
# [17] = test system: A549
# [18] = test system: UACC-257
# [19] = test system: 786-0
# [20] = test system: HOP-62
# [21] = test system: SK-MEL-2
# [22] = test system: CAKI-1
# [23] = test system: SNB-19
# [24] = test system: OVCAR-3
# [25] = test system: HOP-92
# [26] = test system: IGROV-1
# [27] = test system: NCI-H460
# [28] = test system: K562
# [29] = test system: SW-620
# [30] = test system: U-251
# [31] = test system: COLO 205
# [32] = test system: SN12C
# [33] = test system: Malme-3M
# [34] = test system: MCF7
# [35] = test system: SK-MEL-28
# [36] = test system: MDA-MB-435
# [37] = test system: RXF 393
# [38] = test system: SF-539
# [39] = test system: CCRF-CEM
# [40] = test system: BT-549
# [41] = test system: NCI/ADR-RES
# [42] = test system: M14
# [43] = test system: UO-31
# [44] = test system: T47D
# [45] = test system: OVCAR-5
# [46] = test system: HCC 2998
# [47] = test system: MDA-MB-231
# [48] = test system: SK-MEL-5
# [49] = test system: A498
# [50] = test system: SF-295
# [51] = test system: HCT-116
# [52] = test system: NCI-H226
# [53] = test system: DU-145
# [54] = test system: SNB-75
# [55] = test system: Hs-578T
# [56] = test system: ACHN
# [57] = test system: NCI-H23
# [58] = test system: UACC-62
# [59] = test system: SR
smiles,measurement,setting,value
COC(=O)C(Cc1c[nH]c2ccccc12)NC1=Nc2ccncc2S(=O)(=O)N1c1cccc(OC(C)C)c1 (stereo not drawn),GI50,[1],63.2 µM (inactive)
same,GI50,[2],> 100 µM (inactive)
same,GI50,[3],43.2 µM
same,GI50,[4],> 100 µM (inactive)
same,GI50,[5],34.2 µM (inactive)
same,GI50,[6],21.4 µM (inactive)
same,GI50,[7],41.9 µM (inactive)
same,GI50,[8],8.91 µM (inactive)
same,GI50,[9],30.3 µM (inactive)
same,GI50,[10],15.5 µM (inactive)
same,GI50,[11],67.3 µM (inactive)
same,GI50,[12],36.6 µM (inactive)
same,GI50,[13],37.2 µM (inactive)
same,GI50,[14],39.9 µM (inactive)
same,GI50,[15],22.4 µM (inactive)
same,GI50,[16],26.4 µM (inactive)
same,GI50,[17],29.6 µM (inactive)
same,GI50,[18],> 100 µM (inactive)
same,GI50,[19],34.2 µM (inactive)
same,GI50,[20],56.2 µM (inactive)
same,GI50,[21],39.7 µM (inactive)
same,GI50,[22],32.4 µM (inactive)
same,GI50,[23],68.1 µM (inactive)
same,GI50,[24],36 µM (inactive)
same,GI50,[25],3.94 µM (inactive)
same,GI50,[26],18.7 µM (inactive)
same,GI50,[27],27.7 µM (inactive)
same,GI50,[28],41.8 µM (inactive)
same,GI50,[29],92.5 µM (inactive)
same,GI50,[30],47.6 µM (inactive)
same,GI50,[31],30.3 µM (inactive)
same,GI50,[32],48.1 µM (inactive)
same,GI50,[33],56.1 µM (inactive)
same,GI50,[34],24.7 µM (inactive)
same,GI50,[35],> 100 µM (inactive)
same,GI50,[36],45.9 µM (inactive)
same,GI50,[37],> 100 µM (inactive)
same,GI50,[38],80.5 µM (inactive)
same,GI50,[39],20.6 µM (inactive)
same,GI50,[40],27.8 µM (inactive)
same,GI50,[41],20.9 µM (inactive)
same,GI50,[42],41.6 µM (inactive)
same,GI50,[43],45.3 µM (inactive)
same,GI50,[44],36.1 µM (inactive)
same,GI50,[45],> 100 µM (inactive)
same,GI50,[46],48.8 µM (inactive)
same,GI50,[47],49.4 µM (inactive)
same,GI50,[48],25.5 µM (inactive)
same,GI50,[49],82 µM (inactive)
same,GI50,[50],42 µM (inactive)
same,GI50,[51],35.4 µM (inactive)
same,GI50,[52],> 100 µM (inactive)
same,GI50,[53],32.8 µM (inactive)
same,GI50,[54],53.2 µM (inactive)
same,GI50,[55],> 100 µM (inactive)
same,GI50,[56],41.1 µM (inactive)
same,GI50,[57],20.1 µM (inactive)
same,GI50,[58],25.9 µM (inactive)
same,GI50,[59],21.8 µM (inactive)
NCC(=O)C(O)C(O)C(O)CO (stereo not drawn),GI50,[1],> 100 µM (inactive)
same,GI50,[2],> 100 µM (inactive)
same,GI50,[3],> 100 µM
same,GI50,[4],> 100 µM (inactive)
same,GI50,[5],> 100 µM (inactive)
same,GI50,[6],> 100 µM (inactive)
same,GI50,[7],> 100 µM (inactive)
same,GI50,[8],> 100 µM (inactive)
same,GI50,[9],> 100 µM (inactive)
same,GI50,[10],> 100 µM (inactive)
same,GI50,[11],> 100 µM (inactive)
same,GI50,[12],> 100 µM (inactive)
same,GI50,[13],> 100 µM (inactive)
same,GI50,[14],> 100 µM (inactive)
same,GI50,[15],> 100 µM (inactive)
same,GI50,[16],> 100 µM (inactive)
same,GI50,[17],> 100 µM (inactive)
same,GI50,[18],> 100 µM (inactive)
same,GI50,[19],> 100 µM (inactive)
same,GI50,[20],> 100 µM (inactive)
same,GI50,[21],> 100 µM (inactive)
same,GI50,[22],> 100 µM (inactive)
same,GI50,[23],> 100 µM (inactive)
same,GI50,[24],> 100 µM (inactive)
same,GI50,[25],> 100 µM (inactive)
same,GI50,[26],> 100 µM (inactive)
same,GI50,[27],> 100 µM (inactive)
same,GI50,[28],> 100 µM (inactive)
same,GI50,[29],> 100 µM (inactive)
same,GI50,[30],> 100 µM (inactive)
same,GI50,[31],> 100 µM (inactive)
same,GI50,[32],> 100 µM (inactive)
same,GI50,[33],> 100 µM (inactive)
same,GI50,[34],> 100 µM (inactive)
same,GI50,[35],> 100 µM (inactive)
same,GI50,[36],> 100 µM (inactive)
same,GI50,[37],> 100 µM (inactive)
same,GI50,[38],> 100 µM (inactive)
same,GI50,[39],> 100 µM (inactive)
same,GI50,[40],> 100 µM (inactive)
same,GI50,[41],> 100 µM (inactive)
same,GI50,[42],> 100 µM (inactive)
same,GI50,[43],> 100 µM (inactive)
same,GI50,[44],> 100 µM (inactive)
same,GI50,[45],> 100 µM (inactive)
same,GI50,[46],> 100 µM (inactive)
same,GI50,[47],> 100 µM (inactive)
same,GI50,[48],> 100 µM (inactive)
same,GI50,[49],> 100 µM (inactive)
same,GI50,[50],> 100 µM (inactive)
same,GI50,[51],> 100 µM (inactive)
same,GI50,[52],> 100 µM (inactive)
same,GI50,[53],> 100 µM (inactive)
same,GI50,[54],65.9 µM (inactive)
same,GI50,[55],> 100 µM (inactive)
same,GI50,[56],> 100 µM (inactive)
same,GI50,[57],> 100 µM (inactive)
same,GI50,[58],> 100 µM (inactive)
same,GI50,[59],> 100 µM (inactive)
